# Assay results taken from patent publication US20110020843A1, “LABEL-FREE METHODS RELATED TO PHOSPHODIESTERASES” (priority 2009, published 2011).
# Test system: quiescent A431 cells (endogenous PDE4 isoforms)
# Assay: Label-free Epic RWG biosensor DMR assay of PDE inhibitors in synchronized quiescent A431 cells
# Assay type: cell-based, human
# Conditions: A431; 10 micromolar; ultra-high confluent cells, 2 hrs in low CO2 (~2%) (FIG. 12A)
# Experimental: Cells were typically grown using ˜1 to 2×10^4 cells per well at passage 3 to 15 suspended in 50 μl of the corresponding culture medium in the biosensor microplate, and were cultured at 37° C. under air/5% CO2 for ˜1 day. Except for A431 which was subject to ˜20 hr starvation through continuously culture in the serum-free DMEM, the other cell types were directly assayed without starvation.
# Epic® wavelength interrogation system (Corning Inc., Corning, N.Y.) was used for whole cell sensing. This system consists of a temperature-control unit, an optical detection unit, and an on-board liquid handling unit with robotics. The detection unit is centered on integrated fiber optics, and enables kinetic measures of cellular responses with a time interval of ˜15 sec. The compound solutions were introduced by using the on-board liquid handling unit (i.e., pippetting).
# The RWG biosensor is capable of detecting minute changes in local index of refraction near the sensor surface. Since the local index of refraction within a cell is a function of density and its distribution of biomass (e.g., proteins, molecular complexes), the biosensor exploits its evanescent wave to non-invasively detect ligand-induced dynamic mass redistribution in native cells. The evanescent wave extends into the cells and exponentially decays over distance, leading to a characteristic sensing volume of ˜150 nm, implying that any optical response mediated through the receptor activation only represents an average over the portion of the cell that the evanescent wave is sampling. The aggregation of many cellular events downstream the receptor activation determines the kinetics and amplitudes of a ligand-induced DMR.
# All studies were carried out at a controlled temperature (28° C.). At least two independent sets of experiments, each with at least three replicates, were performed.
# We further examined the DMR signal, if any, of the quiescent A431 cells upon treatment with PDE inhibitors. […] The quiescent A431 cells obtained under the same culture condition were used. Here the initial seeding numbers of cells were relatively low (˜20K cells per well in a 384 well Epic biosensor microplate tissue culture treated). […] After washing with the serum free medium, the cells were continuously cultured in the serum free medium for another 24 hrs to reach a quiescent state. Here the quiescent state was largely achieved through serum withdrawl. […] The cell membrane bound carbonic anahydrase is a known sensor for CO2 level.
# In FIG. 4 the quiescent cells were achieved primarily through serum withdrawl. We were interested in the quiescent cells achieved through both contact inhibition and serum withdrawl. To do so, much higher initial seeding numbers of cells (>=25k cells per well for the 384 well Epic biosensor microplate) were used. […] Here both quiescent cells were subject to the same synchronization condition (2 hr incubation in the HBSS assay solution in a low CO2 environment).
# Here the quiescent A431 cells were used using 22k cells per well in 384 well Epic biosensor microplates, followed by one day (˜24 hrs) culture in serum medium and 1 day (˜24 hrs) serum free medium, and sequential synchronization in the HBSS buffer solution under a relatively low CO2 environment for 2 hrs. […] For comparison, the DMR signal of cells stimulated with the buffer only (“Vehicle”) were included.
compound,measurement,value
N#CC(C#N)=C(N)/C(C#N)=C/c1cc(O)c(O)c(O)c1 [tyrphostin 51],primary DMR profile,closely resembled the classic Gs-DMR signals
